Experimental data as given in patent US20260356879A1, “CELASTROL DERIVATIVES” (Celloram Inc., priority 2022, published 2026).
Entries after “also recorded” stand apart in the source; their conditions may differ.

Test system: NLRP3 inflammasome
Assay: Secreted IL-1β in conditioned media of BMDC (ELISA), LPS+ATP or LPS+Nigericin
Assay type: cell-based
Details: 63-500 nM, FIG. 2B
Protocol: FIG. 2A depicts western blot images showing the relative NLRP3 inflammasome activity of the compounds 22 (CLM-022) and 1 (CLM-001) by detecting the level of cellular ASC complex and the mature form of IL-1β (15 kDa) in a conditioned media of BMDCs treated with LPS (100 ng/ml) for 3 hours and then the compound at 50 nM, 100 nM, and 500 nM concentration for 30 min, followed by ATP or Nigericin. ASC monomer and β-Actin proteins were used as controls. FIG. 2B depict plots of results showing secreted IL-1β levels measured by ELISA using conditioned media of BMDC treated with the compound 22 or compound 1 at 63 nM, 125 nM, 250 nM, and 500 nM, under NLRP3 inflammasome activation induced either by LPS+ATP or LPS+Nigericin. FIG. 2C depict plots of results showing secreted TNF-α levels measured by ELISA using conditioned media of BMDC treated with the compound 22 or compound 1 at 63 nM, 125 nM, 250 nM, and 500 nM, under NLRP3 inflammasome activation induced either by LPS+ATP or LPS+Nigericin.
1. […] After 30 minutes Nigericin (10 μM) or ATP (5 mM) was added (Signal 2) and the level of NLRP3-dependent inflammasome activity was determined by western blotting the treated cells with ASC complex (>48 kDa). […]

## CC1=C(O)C(=O)C=C2C1=CC=C1[C@@]2(C)CC[C@@]2(C)[C@@H]3C[C@](C)(N(C)C(=O)C(=O)N(C)C)CC[C@]3(C)CC[C@]12C [Compound 22, N′-[(2R,4aS,6aR,6aS,14aS,14bR)-10-hydroxy-2,4a,6a,6a,9,14a-hexamethyl-11-oxo-1,3,4,5,6,13,14,14b-octahydropicen-2-yl]-N,N,N′-trimethyl-oxamide]
  inhibition of IL-1β secretion: more strongly inhibited IL-1β secretion induced by both LPS+ATP and LPS+Nigericin; also recorded: strongly inhibited IL-1β secretion via suppression of NLRP3 inflammasome
